Among the data in ChEMBL document CHEMBL3991601, “The target landscape of clinical kinase drugs” (Science, 2017) are Kd values, retold here.

Active and inactive are the calls of the source. Rule as the data show it, for most assays here: actives have a measured Kd and inactives only a lower limit. Some results are limits rather than exact numbers.

Among the targets are Deoxycytidine kinase (Homo sapiens, UniProt P27707); Ephrin type-A receptor 7 (Homo sapiens, UniProt Q15375); Aurora kinase B (Homo sapiens, UniProt Q96GD4).
Test [1] deals with Mitotic checkpoint serine/threonine-protein kinase BUB1 (Homo sapiens, UniProt O43683).
Test [2] deals with Receptor-interacting serine/threonine-protein kinase 3 (Homo sapiens, UniProt Q9Y572).
Test [3] deals with Protein-tyrosine kinase 2-beta (Homo sapiens, UniProt Q14289).
The target of test [4] is Tyrosine-protein kinase JAK1 (Homo sapiens, UniProt P23458).
The target in test [5] is Putative heat shock protein HSP 90-beta 2 (Homo sapiens, UniProt Q58FF8).
For test [6], the target named is NADH dehydrogenase [ubiquinone] 1 alpha subcomplex subunit 13 (Homo sapiens, UniProt Q9P0J0).
The target in test [7] is T1, Dynamin-like GTPase OPA1, mitochondrial (Homo sapiens, UniProt O60313).
T1 sequence (O60313 whole entry): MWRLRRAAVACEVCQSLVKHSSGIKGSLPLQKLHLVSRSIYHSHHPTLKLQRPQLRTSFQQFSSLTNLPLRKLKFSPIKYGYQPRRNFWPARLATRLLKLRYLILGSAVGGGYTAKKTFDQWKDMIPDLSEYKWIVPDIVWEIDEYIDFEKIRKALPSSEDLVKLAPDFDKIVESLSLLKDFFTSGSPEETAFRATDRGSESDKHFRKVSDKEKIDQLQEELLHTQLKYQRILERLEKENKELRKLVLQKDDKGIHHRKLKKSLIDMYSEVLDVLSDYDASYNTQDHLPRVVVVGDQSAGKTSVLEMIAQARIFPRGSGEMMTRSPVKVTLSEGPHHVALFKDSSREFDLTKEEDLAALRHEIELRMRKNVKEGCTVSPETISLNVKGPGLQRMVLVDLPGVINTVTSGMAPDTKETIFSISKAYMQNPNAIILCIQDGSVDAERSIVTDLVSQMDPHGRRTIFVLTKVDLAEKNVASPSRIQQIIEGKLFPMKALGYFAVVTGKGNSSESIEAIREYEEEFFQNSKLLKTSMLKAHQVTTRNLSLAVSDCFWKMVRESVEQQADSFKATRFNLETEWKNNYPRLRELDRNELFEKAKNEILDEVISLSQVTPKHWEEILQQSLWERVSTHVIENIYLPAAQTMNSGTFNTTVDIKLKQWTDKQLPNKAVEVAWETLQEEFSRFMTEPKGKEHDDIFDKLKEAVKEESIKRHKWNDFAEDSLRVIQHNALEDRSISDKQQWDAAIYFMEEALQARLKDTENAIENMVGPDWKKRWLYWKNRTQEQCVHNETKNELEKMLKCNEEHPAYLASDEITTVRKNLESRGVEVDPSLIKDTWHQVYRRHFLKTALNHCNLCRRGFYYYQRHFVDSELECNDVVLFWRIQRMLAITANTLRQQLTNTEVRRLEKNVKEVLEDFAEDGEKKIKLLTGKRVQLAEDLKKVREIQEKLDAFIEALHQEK

The target in test [8] is T2, Cyclin-G-associated kinase (Homo sapiens, UniProt O14976).
T2 sequence (O14976 whole entry): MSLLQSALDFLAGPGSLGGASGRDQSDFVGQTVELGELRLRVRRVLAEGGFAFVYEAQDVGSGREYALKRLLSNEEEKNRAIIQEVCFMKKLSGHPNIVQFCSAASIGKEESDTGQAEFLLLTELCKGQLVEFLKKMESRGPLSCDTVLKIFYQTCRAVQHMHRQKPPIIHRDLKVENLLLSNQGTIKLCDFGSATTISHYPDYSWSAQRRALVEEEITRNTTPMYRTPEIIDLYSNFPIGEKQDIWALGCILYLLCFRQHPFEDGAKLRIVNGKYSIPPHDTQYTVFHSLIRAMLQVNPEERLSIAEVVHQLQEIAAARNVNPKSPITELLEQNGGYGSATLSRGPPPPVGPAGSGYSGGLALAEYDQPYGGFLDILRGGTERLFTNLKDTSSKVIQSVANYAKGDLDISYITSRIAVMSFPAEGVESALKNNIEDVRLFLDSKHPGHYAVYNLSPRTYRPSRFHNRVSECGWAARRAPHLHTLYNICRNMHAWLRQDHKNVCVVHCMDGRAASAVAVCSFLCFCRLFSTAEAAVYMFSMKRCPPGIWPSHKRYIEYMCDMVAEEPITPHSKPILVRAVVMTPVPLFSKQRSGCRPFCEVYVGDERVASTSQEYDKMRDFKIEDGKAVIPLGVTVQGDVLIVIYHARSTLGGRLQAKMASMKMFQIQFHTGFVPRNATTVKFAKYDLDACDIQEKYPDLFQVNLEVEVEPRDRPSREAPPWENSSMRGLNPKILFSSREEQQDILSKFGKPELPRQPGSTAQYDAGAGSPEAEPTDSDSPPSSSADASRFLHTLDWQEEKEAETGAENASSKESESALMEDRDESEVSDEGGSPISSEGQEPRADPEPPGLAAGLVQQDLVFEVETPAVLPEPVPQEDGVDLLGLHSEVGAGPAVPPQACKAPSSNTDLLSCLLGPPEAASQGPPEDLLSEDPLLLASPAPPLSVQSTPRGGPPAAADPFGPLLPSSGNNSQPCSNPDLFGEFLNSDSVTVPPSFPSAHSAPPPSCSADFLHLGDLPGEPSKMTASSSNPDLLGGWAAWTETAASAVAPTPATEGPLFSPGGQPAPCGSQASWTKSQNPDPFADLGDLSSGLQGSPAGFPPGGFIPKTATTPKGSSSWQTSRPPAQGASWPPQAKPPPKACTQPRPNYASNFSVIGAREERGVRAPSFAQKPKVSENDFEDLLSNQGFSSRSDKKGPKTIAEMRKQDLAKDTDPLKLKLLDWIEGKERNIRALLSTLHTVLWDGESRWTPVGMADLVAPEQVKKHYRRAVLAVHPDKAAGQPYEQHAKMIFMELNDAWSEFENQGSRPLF

In test [9] the target is RAC-alpha serine/threonine-protein kinase (Homo sapiens, UniProt P31749).
For test [10], the target named is Tyrosine-protein kinase SYK (Homo sapiens, UniProt P43405).
The target of test [11] is Serine/threonine-protein kinase 26 (Homo sapiens, UniProt Q9P289).
Test [12] deals with Serine/threonine-protein kinase MRCK beta (Homo sapiens, UniProt Q9Y5S2).
Also: in the data inactive means no Kd found up to 30 µM.

Sequence of Aurora kinase B (Q96GD4 whole entry): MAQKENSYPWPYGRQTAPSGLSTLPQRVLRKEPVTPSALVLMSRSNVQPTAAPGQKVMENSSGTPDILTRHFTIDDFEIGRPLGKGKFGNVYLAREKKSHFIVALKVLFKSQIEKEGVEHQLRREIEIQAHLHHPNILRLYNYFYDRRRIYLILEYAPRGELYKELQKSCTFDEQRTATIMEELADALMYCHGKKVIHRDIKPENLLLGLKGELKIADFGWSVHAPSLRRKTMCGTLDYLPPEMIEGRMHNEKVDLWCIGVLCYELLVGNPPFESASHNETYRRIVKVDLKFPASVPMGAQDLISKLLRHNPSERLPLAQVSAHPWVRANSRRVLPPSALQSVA
Sequence of NADH dehydrogenase [ubiquinone] 1 alpha subcomplex subunit 13 (Q9P0J0 whole entry, one chain of several): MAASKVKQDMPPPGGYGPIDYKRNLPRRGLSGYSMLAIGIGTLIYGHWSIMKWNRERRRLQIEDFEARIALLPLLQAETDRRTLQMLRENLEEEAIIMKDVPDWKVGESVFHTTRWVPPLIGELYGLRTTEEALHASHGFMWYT
Sequence of Serine/threonine-protein kinase 26 (Q9P289 whole entry): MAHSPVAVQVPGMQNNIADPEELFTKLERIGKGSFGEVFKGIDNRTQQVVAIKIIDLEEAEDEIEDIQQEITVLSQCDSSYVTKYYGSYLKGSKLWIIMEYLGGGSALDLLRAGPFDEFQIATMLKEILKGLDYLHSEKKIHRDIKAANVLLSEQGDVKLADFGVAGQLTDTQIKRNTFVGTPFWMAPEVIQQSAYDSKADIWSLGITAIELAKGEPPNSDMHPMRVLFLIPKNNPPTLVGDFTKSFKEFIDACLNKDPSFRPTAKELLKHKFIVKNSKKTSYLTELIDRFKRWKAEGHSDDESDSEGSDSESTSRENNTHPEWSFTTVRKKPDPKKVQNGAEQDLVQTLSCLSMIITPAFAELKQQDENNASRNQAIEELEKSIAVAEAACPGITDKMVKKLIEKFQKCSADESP
Sequence of Mitotic checkpoint serine/threonine-protein kinase BUB1 (O43683 whole entry): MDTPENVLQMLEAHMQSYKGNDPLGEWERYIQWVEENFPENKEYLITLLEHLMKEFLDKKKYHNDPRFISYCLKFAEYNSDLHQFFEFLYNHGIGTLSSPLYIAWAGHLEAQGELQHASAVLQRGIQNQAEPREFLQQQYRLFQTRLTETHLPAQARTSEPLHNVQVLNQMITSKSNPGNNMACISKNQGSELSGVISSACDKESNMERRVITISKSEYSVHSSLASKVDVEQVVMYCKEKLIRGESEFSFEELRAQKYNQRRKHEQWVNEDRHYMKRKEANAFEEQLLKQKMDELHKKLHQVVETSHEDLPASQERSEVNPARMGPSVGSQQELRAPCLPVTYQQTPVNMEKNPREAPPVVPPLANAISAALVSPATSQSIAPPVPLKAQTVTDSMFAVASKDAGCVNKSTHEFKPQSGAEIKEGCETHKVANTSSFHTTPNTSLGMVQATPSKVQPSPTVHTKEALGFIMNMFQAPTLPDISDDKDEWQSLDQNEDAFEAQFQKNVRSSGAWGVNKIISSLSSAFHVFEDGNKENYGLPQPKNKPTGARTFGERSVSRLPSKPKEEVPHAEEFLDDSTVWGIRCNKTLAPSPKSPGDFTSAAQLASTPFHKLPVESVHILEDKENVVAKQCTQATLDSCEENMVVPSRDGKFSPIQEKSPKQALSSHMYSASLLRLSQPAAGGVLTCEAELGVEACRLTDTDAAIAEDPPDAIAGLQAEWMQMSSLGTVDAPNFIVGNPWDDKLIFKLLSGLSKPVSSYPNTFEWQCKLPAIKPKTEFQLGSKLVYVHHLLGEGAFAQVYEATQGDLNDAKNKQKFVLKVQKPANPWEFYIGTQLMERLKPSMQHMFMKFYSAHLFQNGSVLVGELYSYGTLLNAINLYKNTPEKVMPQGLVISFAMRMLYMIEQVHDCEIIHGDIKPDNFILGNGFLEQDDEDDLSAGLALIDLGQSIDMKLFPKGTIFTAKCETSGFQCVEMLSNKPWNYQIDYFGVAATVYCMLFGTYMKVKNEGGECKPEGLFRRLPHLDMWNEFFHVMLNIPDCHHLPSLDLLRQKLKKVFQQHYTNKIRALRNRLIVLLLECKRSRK
Sequence of Receptor-interacting serine/threonine-protein kinase 3 (Q9Y572 whole entry): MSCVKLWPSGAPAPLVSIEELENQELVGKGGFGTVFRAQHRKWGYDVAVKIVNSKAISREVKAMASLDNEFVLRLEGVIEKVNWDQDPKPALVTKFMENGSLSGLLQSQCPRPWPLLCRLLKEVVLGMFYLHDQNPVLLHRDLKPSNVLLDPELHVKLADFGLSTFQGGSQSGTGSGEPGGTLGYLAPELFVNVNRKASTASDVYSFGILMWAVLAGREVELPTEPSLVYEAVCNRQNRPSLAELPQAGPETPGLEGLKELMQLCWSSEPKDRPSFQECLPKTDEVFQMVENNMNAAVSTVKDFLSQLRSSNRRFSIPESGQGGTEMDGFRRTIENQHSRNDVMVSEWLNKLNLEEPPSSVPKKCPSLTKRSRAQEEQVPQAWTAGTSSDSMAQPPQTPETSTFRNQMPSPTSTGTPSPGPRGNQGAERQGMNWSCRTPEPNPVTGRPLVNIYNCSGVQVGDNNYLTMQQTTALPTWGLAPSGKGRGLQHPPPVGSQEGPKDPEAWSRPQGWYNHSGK
Sequence of Protein-tyrosine kinase 2-beta (Q14289 whole entry): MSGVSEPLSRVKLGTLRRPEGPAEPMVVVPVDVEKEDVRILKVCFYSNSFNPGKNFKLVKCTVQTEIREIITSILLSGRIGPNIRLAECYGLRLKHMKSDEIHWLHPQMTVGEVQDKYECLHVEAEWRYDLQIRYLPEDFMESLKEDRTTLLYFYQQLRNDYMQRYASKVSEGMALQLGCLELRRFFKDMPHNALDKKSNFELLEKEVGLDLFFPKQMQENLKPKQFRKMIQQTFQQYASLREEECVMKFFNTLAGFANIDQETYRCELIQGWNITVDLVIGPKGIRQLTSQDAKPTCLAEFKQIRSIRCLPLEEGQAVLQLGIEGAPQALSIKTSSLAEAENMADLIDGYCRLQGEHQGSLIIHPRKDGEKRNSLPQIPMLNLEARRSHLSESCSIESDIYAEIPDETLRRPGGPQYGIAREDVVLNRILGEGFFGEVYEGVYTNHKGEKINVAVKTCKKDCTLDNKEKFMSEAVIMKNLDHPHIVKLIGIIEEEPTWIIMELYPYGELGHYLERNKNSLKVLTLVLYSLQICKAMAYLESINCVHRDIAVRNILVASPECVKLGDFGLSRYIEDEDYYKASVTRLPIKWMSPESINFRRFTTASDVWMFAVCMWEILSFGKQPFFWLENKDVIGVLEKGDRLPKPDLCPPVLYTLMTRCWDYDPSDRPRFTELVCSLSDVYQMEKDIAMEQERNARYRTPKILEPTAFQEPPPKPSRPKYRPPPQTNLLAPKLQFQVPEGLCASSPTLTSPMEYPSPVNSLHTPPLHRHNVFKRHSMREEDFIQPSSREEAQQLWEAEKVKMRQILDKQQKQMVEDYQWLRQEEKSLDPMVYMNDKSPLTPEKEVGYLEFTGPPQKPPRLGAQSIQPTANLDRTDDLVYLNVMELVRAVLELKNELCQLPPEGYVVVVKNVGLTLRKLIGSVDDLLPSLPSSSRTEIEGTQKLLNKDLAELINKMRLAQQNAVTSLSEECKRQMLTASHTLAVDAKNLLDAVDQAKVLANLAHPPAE
Sequence of Ephrin type-A receptor 7 (Q15375 whole entry): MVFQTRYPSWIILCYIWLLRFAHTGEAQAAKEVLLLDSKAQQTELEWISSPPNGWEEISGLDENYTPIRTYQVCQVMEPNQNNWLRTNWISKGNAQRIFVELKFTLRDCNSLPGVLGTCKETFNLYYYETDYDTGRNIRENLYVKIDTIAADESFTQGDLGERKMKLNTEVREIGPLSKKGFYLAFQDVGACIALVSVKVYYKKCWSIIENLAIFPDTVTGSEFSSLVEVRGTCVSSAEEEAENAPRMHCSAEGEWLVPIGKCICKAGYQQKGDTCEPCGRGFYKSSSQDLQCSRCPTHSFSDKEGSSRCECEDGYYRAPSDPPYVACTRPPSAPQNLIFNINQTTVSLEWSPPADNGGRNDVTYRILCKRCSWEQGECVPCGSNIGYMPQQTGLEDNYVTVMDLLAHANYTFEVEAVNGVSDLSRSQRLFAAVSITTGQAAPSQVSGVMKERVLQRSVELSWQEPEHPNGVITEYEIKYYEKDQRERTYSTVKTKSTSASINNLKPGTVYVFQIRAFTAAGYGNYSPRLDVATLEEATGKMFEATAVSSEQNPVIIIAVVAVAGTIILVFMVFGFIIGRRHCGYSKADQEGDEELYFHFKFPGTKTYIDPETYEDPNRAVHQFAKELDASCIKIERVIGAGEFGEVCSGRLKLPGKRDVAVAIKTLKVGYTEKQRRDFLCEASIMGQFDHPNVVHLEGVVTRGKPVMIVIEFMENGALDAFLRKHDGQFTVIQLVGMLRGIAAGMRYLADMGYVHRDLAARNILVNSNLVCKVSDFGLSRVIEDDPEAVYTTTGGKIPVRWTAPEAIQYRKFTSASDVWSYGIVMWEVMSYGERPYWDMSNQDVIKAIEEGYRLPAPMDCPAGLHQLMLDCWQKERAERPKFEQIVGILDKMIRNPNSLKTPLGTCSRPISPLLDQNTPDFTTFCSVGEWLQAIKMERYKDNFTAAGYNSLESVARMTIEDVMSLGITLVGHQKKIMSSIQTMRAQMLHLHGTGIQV
Sequence of Putative heat shock protein HSP 90-beta 2 (Q58FF8 whole entry): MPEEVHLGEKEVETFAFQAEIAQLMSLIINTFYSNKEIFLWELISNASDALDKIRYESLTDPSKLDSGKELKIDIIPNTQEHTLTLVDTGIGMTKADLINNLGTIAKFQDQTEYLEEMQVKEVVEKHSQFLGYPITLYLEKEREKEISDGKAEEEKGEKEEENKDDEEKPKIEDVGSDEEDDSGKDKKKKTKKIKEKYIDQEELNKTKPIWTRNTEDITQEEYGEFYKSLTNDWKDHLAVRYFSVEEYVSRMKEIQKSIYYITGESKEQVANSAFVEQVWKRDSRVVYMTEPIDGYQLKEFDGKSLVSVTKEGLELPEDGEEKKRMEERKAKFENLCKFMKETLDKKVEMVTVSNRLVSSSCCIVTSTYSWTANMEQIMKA

As for `NC(=O)c1ccc(N(C(N)=O)c2c(F)cccc2F)nc1-c1ccc(F)cc1F` [VX-702], the Kd (in [1]; in test [2]; in [3]; on Deoxycytidine kinase; on Ephrin type-A receptor 7; in test [4]) was > 30 µM (inactive) each time. The Kd (in [5]; in [6]; in test [7]; in [8]; in [9]; at Aurora kinase B) was > 30 µM (inactive) each time. The Kd in test [10], in [11] and in [12] was > 30 µM (inactive) each time.

For `C=CC(=O)Nc1cc(Nc2nccc(-c3cn(C)c4ccccc34)n2)c(OC)cc1N(C)CCN(C)C` [OSIMERTINIB], the Kd (in [1]; in test [2]; in test [3]; at Deoxycytidine kinase; at Ephrin type-A receptor 7; in [4]) was > 30 µM (inactive) each time. For the same compound, the Kd (in test [5]; in test [6]; in test [7]; in test [8]; in [9]; on Aurora kinase B) was > 30 µM (inactive) in each case. The Kd in test [10], in test [11] and in [12] was > 30 µM (inactive) in each case.

With `COCCN1CCN(Cc2ccc(-c3n[nH]c4c3C(=O)c3c(NC(=O)NN5CCOCC5)cccc3-4)cc2)CC1` [RGB-286638], the Kd in test [1] was > 30 µM (inactive); in test [2], > 30 µM (inactive); in test [3], > 30 µM (inactive); at Deoxycytidine kinase, > 30 µM (inactive); on Ephrin type-A receptor 7, > 30 µM (inactive); in test [4], 0.139 µM (active). The Kd was > 30 µM (inactive) in test [5]; > 30 µM (inactive) in test [6]; > 30 µM (inactive) in test [7]; 0.004 µM (active) in test [8]; > 30 µM (inactive) in [9]; > 30 µM (inactive) at Aurora kinase B. The Kd was > 30 µM (inactive) in [10], 1.05 µM (active) in test [11] and 1.02 µM (active) in test [12].

In the case of `C#Cc1cccc(Nc2ncnc3cc4c(cc23)OCCOCCOCCO4)c1` [ICOTINIB], the dissociation constant Kd in [1] was 2.91 µM (active); in test [2] it was > 30 µM (inactive); in test [3], > 30 µM (inactive); on Deoxycytidine kinase it was > 30 µM (inactive); on Ephrin type-A receptor 7, > 30 µM (inactive); in [4], > 30 µM (inactive). Also, the Kd was > 30 µM (inactive) in test [5]; > 30 µM (inactive) in test [6]; > 30 µM (inactive) in [7]; 0.725 µM (active) in test [8]; > 30 µM (inactive) in test [9]; > 30 µM (inactive) at Aurora kinase B. The Kd in test [10], in test [11] and in test [12] was > 30 µM (inactive) each time.

Turning to `FC(F)(F)c1ccc(CNc2ccc(Cc3c[nH]c4ncc(Cl)cc34)cn2)cn1` [PEXIDARTINIB], the Kd (in test [1]; in [2]; in test [3]; at Deoxycytidine kinase; at Ephrin type-A receptor 7; in test [4]) was > 30 µM (inactive) each time. The Kd (in test [5]; in [6]; in [7]; in test [8]; in test [9]; on Aurora kinase B) was > 30 µM (inactive) each time. The Kd in [10], in test [11] and in test [12] was > 30 µM (inactive) throughout.

With `CC(C)(O)CC(=O)NCCn1ccc2ncnc(Nc3ccc(Oc4cccc(C(F)(F)F)c4)c(Cl)c3)c21` [TAK-285], the Kd (in test [1]; in [2]; in [3]; at Deoxycytidine kinase; at Ephrin type-A receptor 7; in test [4]) was > 30 µM (inactive) each time. The Kd (in [5]; in test [6]; in test [7]; in [8]; in test [9]; at Aurora kinase B) was > 30 µM (inactive) throughout. Besides, the Kd in test [10], in [11] and in test [12] was > 30 µM (inactive) throughout.

With `Cc1cc(C(=O)Nc2cc(Oc3ccc4nc(NC(=O)C5CC5)cn4n3)ccc2C)n(C)n1` [TAK-593], the Kd (in test [1]; in test [2]; in test [3]; at Deoxycytidine kinase; at Ephrin type-A receptor 7; in test [4]) was > 30 µM (inactive) each time. The Kd (in [5]; in test [6]; in test [7]; in test [8]; in test [9]; on Aurora kinase B) was > 30 µM (inactive) in each case. Besides, the Kd in test [10], in test [11] and in test [12] was > 30 µM (inactive) each time.

The term Kd denotes a measure of binding affinity in units of concentration.
